Source: PubChem BioAssay (NCI)
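Five concentrations, 48 hours, 96-well plates. TGI: concentration producing complete growth inhibition.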

Tests used:
P388/ADR leukemia = test: NCI tumour cell line growth inhibition, 48 h
P388 leukemia = test: NCI tumour cell line growth inhibition, 48 h

O=C(O)CCC(NC(=O)c1ccc(Nc2nc3cc(C(F)(F)F)ccc3nc2-c2ccccc2)cc1)C(=O)O (configuration not stated)
TGI (P388/ADR leukemia): > 100 µM | TGI (P388 leukemia): > 100 µM
